Assays:
tumor cells = assay: MTT tumor cell growth inhibition, summary over the cell line panel; assay type: cell-based; details: ten tumor cell lines of Table 2, MTT, 72 hours; read-out: IC50 of tumor cell proliferation inhibition, span over the tested cell lines
Text: (§1) The tetrazolium salt (MTT) reduction method was used to test the activity of the compounds of the present invention. Human breast cancer cells (MDA-MB-231) (CAS cell library; catalog number: TCHu227), human lung cancer cells (A549) (ATCC® Number: CRM-CCL-185™), human colon cancer cells (HCT-116) (CAS cell library; catalog number: TCHu99), acute monocytic leukemia cells (MV4-11) (ATCC® Number: CRL-9591™), tissue cell lymphoma cells (U-937) (CAS cell library; catalog number: TCHu159), human acute promyelocytic leukemia cells (HL-60) (ATCC® Number: CCL-240™), chronic myelogenous leukemia cells (of K562) (CAS cell library; catalog number: TCHu191), human hepatocellular carcinoma cells (BEL-7404) (CAS cell library; catalog number: TCHu64), human pancreatic cancer cells (BxPC3) (ATCC® Number: […])) and human prostate cancer cells (PC-3) (ATCC®Number: […]) were inoculated in 96-well plates, 90 μL/well, with 3000 to 8000 cells in respective well; in the first row of plate, 100 μL/well culture medium was added; the 96-well plate was pre-incubated in an incubator at 37° C., 5% CO2, and 100% relative humidity for 24 hours.
(§2) A compound was weighed and configured to a 10 mM/L stock solution, and the compound was diluted three-fold sequentially from the highest concentration of 2 millimoles (mM); 95 μl the corresponding cell medium was added to each well of a V-bottom dispensing plate; 5 μl of the compound on a 200× plate was transferred to a 10× dispensing plate according to the concentration; 5 μl of dimethylsulfoxide (DMSO) was evenly mixed in the corresponding 95 μl cell culture medium as a vehicle control. 10 μl of the compound-medium in each well of the 10× dispensing plate was added to a 96-well plate already plated with cells. […]
(§3) After the compound for cells was treated for 72 hours, 20 microliters of 5 mg/ml MTT was added to each well; all the steps need to be aseptic. […] The absorbance at 490 nm was read on a SpectraMax M2e instrument. The compound activity (relative IC50) was calculated using GraphPad Prism software.

[1] = tested on: chronic myelogenous leukemia cells (K562); assay: MTT tumor cell growth inhibition, K562; assay type: cell-based; details: Homo sapiens, 72 hours, relative IC50
Text: as §1, §2, §3

[2] = tested on: human lung cancer cells (A549); assay: MTT tumor cell growth inhibition, A549; assay type: cell-based; details: 72 hours, relative IC50
Text: as §1, §2, §3

[3] = tested on: human pancreatic cancer cells (BxPC3); assay: MTT tumor cell growth inhibition, BxPC3; assay type: cell-based; details: BXPC-3, 72 hours, relative IC50
Text: as §1, §2, §3

[4] = tested on: human hepatocellular carcinoma cells (BEL-7404); assay: MTT tumor cell growth inhibition, BEL-7404; assay type: cell-based; details: BEL-7404, MTT, 72 hours, relative IC50
Text: as §1, §2, §3

[5] = tested on: tissue cell lymphoma cells (U-937); assay: MTT tumor cell growth inhibition, U-937; assay type: cell-based; details: Homo sapiens; U-937, MTT, 72 hours, relative IC50
Text: as §1, §2, §3

[6] = tested on: Human breast cancer cell line MDA-MB-231; assay: In vivo pharmacodynamic study of compound A, MDA-MB-231 nude mice transplanted tumor model; set-up: species or system BALB/C nude mice; details: MDA-MB-231 model, q4d, 4x
Experimental: (§4) Female BALB/C nude mice 6 weeks to 8 weeks old and weighing about 19 g to 29 g were taken (Supplier: Beijing Vital River Laboratory Animal Technology Co., Ltd.) and raised for a week. A human cancer nude mice […] transplanted tumor model was established: Human breast cancer cell line MDA-MB-231 (ATCC® Number: HTB-26™) and human lung cancer cell line NCI-H460 (ATCC® Number: HTB-177™) were incubated. The monolayer tumor cells were digested and detached; then, they were collected and resuspended in a serum-free culture medium, and then were adjusted to a concentration of 2×10^6/0.2 mL. They were put into an iced box and brought to an animal house. A syringe with a No. 6 needle was used to directly take a 0.2 mL cell suspension and transplanted it into the rear subcutaneous scapular regions of the left axillaries of the nude mice at 2×10^6/0.2 mL per mouse. Tumor volumes were measured once every 2 days to 3 days. After two weeks, tumor-bearing nude mice with vigorous tumor growth and no ulceration were selected, the tumors were removed from them under sterile conditions. The tumor tissues were cut to about 2 mm to 3 mm in diameter and inoculated in the rear subcutaneous scapular regions of the left axillaries of the nude mice. After passage for three generations, when the tumor volume grew to 100 mm^3, nude mice with tumor masses that were too large or too small were removed and randomly grouped for administration.
(§5) The mice were randomly divided into five groups, including the negative control group (vehicle), positive control group (Romidepsin, 2.4 mg/kg), treatment group with the high, medium, and low doses of compound A (respectively 7.2 mg/kg, 4.8 mg/kg, 2.4 mg/kg, wherein the high dose was lower than the maximum tolerated dose, MTD); there were six nude mice in each group; intravenous administration was given every 4 days; 4 doses were given. During the period, the weights and tumor volumes of the animals were measured every 2 days, and the number of animal deaths was recorded. 24 hours after the last administration, the animals were sacrificed. The tumor volumes, tumor weights, and body weights of nude mice were measured; tumor volume growth curves, nude mice weight growth curves and tumor inhibition rates, mortality of the animals were plotted; the relative tumor proliferation rate T/C (%) was calculated; according to the formula T/C (%)=TRTV/CRTV*100%. (TRTV: treatment group RTV; CRTV: negative control group RTV, relative tumor volume RTV=Vt/V0, wherein V0 is the tumor volume at the time of administration by group; Vt is the post-administration tumor volume).

blood cells = assay: Effect on blood phase, complete blood count (CBC) analysis; assay type: in vivo, BAB-C mice; details: mouse, in vivo, 0.5 mg/kg
Experimental: BAB-C mice (6 to 8 weeks old, a half being males and the other half females, weighing about 18 g-25 g, supplier: Beijing Vital River Laboratory Animal Technology Co., Ltd.) were raised for one week and then divided into three groups: normal control group, Romidepsin group, and compound A group. The normal group was injected with the vehicle; the drug group was injected with 0.5 mg/kg of the drug; 24 hours and 48 hours respectively after administration, a complete blood count (CBC) analysis was performed; for all the data, mean±standard deviation (mean±SD) was adopted; T tests were performed between inter-group data.

[7] = tested on: human prostate cancer cells (PC-3); assay: MTT tumor cell growth inhibition, PC-3; assay type: cell-based; details: PC-3, MTT, 72 hours, relative IC50
Text: as §1, §2, §3

[8] = tested on: human colon cancer cells (HCT-116); assay: MTT tumor cell growth inhibition, HCT-116; assay type: cell-based; details: HCT-116, MTT, 72 hours, relative IC50
Text: as §1, §2, §3

[9] = tested on: acute monocytic leukemia cells (MV4-11); assay: MTT tumor cell growth inhibition, MV4-11; assay type: cell-based; details: Homo sapiens; MV4-11, MTT, 72 hours, relative IC50
Text: as §1, §2, §3

[10] = tested on: Human breast cancer cells (MDA-MB-231); assay: MTT tumor cell growth inhibition, MDA-MB-231; assay type: cell-based; details: MDA-MB-231, MTT, 72 hours, relative IC50
Text: as §1, §2, §3

[11] = tested on: human lung cancer cell line NCI-H460; assay: In vivo pharmacodynamic study of compound A, NCI-H460 nude mice transplanted tumor model; set-up: species or system BALB/C nude mice; details: q4d, 4x
Experimental: as §4, §5

[12] = tested on: human acute promyelocytic leukemia cells (HL-60); assay: MTT tumor cell growth inhibition, HL-60; assay type: cell-based; details: HL-60, MTT, 72 hours, relative IC50
Text: as §1, §2, §3

Q: Which results are given for `C/C=C1\NC(=O)[C@H]2C[S+]([O-])SCC/C=C/[C@H](CC(=O)N[C@H](C(C)C)C(=O)N2)OC(=O)[C@H](C(C)C)NC1=O` (stereo partly shown) [Compound A]?
A: IC50 (tumor cells): 9.7 to 35.9 nM; IC50 [1]: 23.2 nM; IC50 [2]: 10.7 nM; IC50 [3]: 13.9 nM; IC50 [4]: 10 nM; IC50 [5]: 22.8 nM; Relative tumor proliferation rates T/C (%) ([6]; 2.4 mg/kg): 45.5%(2.4 mg/kg, q4d, 4x); Relative tumor proliferation rates T/C (%) ([6]; 4.8 mg/kg): 35.4%(4.8 mg/kg, q4d, 4x); Relative tumor proliferation rates T/C (%) ([6]; 7.2 mg/kg): 29.8%(7.2 mg/kg, q4d, 4x); PLT compared with the normal group (blood cells): significantly decreased; WBCs compared with the normal group (blood cells): no significant difference compared with the normal group; IC50 [7]: 11.9 nM; IC50 [8]: 29.3 nM; IC50 [9]: 33 nM; IC50 [10]: 9.7 nM; Relative tumor proliferation rates T/C (%) ([11]; 2.4 mg/kg): 44%(2.4 mg/kg, q4d, 4x); Relative tumor proliferation rates T/C (%) ([11]; 4.8 mg/kg): 38.6%(4.8 mg/kg, q4d, 4x); Relative tumor proliferation rates T/C (%) ([11]; 7.2 mg/kg): 25.2%(7.2 mg/kg, q4d, 4x); IC50 [12]: 35.9 nM

Source: US20180057530A1, “CYCLIC PEPTIDE COMPOUND, AND PREPARATION AND USE THEREOF” (Zhejiang Hisun Pharmaceutical Co., Ltd., priority 2015, published 2018)
